Measured values published in article PMC6332424, “Synthesis and Evaluation of New Pyrazoline Derivatives as Potential Anticancer Agents” (Molecules, 2015).
Entries after “also recorded” stand apart in the source; their conditions may differ.

System: AsPC-1 human pancreatic adenocarcinoma cell line
Assay: MTT assay for cytotoxicity, AsPC-1 cells
Assay type: cell-based
Conditions: 24 h incubation, read-out: IC50 AsPC1 Cell Line
Description: (§1) U251 and U87 human glioblastoma cells were incubated in Dulbecco’s-modified Eagle’s medium (DMEM) (Wako Pure Chemical Industries, Osaka, Japan) supplemented with 10% fetal bovine serum (FBS) (Equitech-Bio, Kerrville, TX, USA). AsPC-1 human pancreas adenocarcinoma and Jurkat human leukemic T-cells were incubated RPMI 1640 (Wako Pure Chemical Industries), supplemented with 10% FBS. Peripheral blood mononuclear cells (PBMC) (Precision Bioservices, Frederick, MD, USA) were incubated RPMI 1640 and supplemented with 10% human serum AB (HS) (Gemini, Woodland, CA, USA). All media were supplemented with 89 µg/mL streptomycin (Meiji Seika Pharma, Tokyo, Japan) and cells were incubated at 37 °C in a humidified atmosphere of 95% air and 5% CO2. Growing cells were plated at 1 × 10^5 cells/mL into 24-well microtiter tissue culture plates (Iwaki brand Asahi Glass Co., Chiba, Japan) and incubated for 24 h before the addition of the drugs (the optimal cell number for cytotoxicity assays was determined in preliminary experiments). Stock solutions (1 mM, 5 mM, 10 mM, 20 mM, and 50 mM) of compounds and cisplatin (Sigma-Aldrich, St. Louis, MO, USA) were prepared in dimethyl sulfoxide (DMSO; Wako Pure Chemical Industries) and in dimethylformamide (DMF; Wako Pure Chemical Industries) respectively, then were added to fresh culture medium. The concentration of DMSO and DMF in the final culture medium was 1%. The level of cellular reduction of 3-(4,5-dimethylthiazol-2-yl)-2,5-diphenyltetrazolium bromide (MTT) (Dojindo Molecular Technologies, Kumamoto, Japan) was quantified as previously described in the literature with small modifications. The tested compounds were incubated with cells to give a final concentration in the range 50–500 µM for 24 h. At the end of this period, MTT was added to cells in culture to give a final concentration of 0.275 mg/mL and incubated further for 4 h at 37 °C. The medium was removed and the formazan crystals were solubilized by addition of 100 µL DMSO to each well. After the solubilized crystals were diluted (1:10) with DMSO, 100 µL was transferred to wells of 96-well microtiter plates (Iwaki brand Asahi Glass Co.) and the absorbance at 550 nm was measured using a microplate spectrophotometer Infinitive M1000 (Tecan, Groding, Austria). Every concentration was repeated in three wells and IC50 values were defined as the drug concentrations which reduced absorbance to 50 % of control values.

Molecule	IC50 [µM]
1-[(1-Phenyl-1H-tetrazol-5-yl)thioacetyl]-3-(2-thienyl)-5-(4-chlorophenyl)-2-pyrazoline [Compound 3]	> 500
1-[(5-Phenyl-1,3,4-oxadiazol-2-yl)thioacetyl]-3-(2-thienyl)-5-(4-chlorophenyl)-2-pyrazoline [Compound 8]	139 ± 26.8
1-[(1-(4-Hydroxyphenyl)-1H-tetrazol-5-yl)thioacetyl]-3-(2-thienyl)-5-(4-chlorophenyl)-2-pyrazoline [Compound 4]	65 ± 5.4
1-[(1-Methyl-1H-tetrazol-5-yl)thioacetyl]-3-(2-thienyl)-5-(4-chlorophenyl)-2-pyrazoline [Compound 2]	> 500
1-[(5-Methyl-1,3,4-thiadiazol-2-yl)thioacetyl]-3-(2-thienyl)-5-(4-chlorophenyl)-2-pyrazoline [Compound 6]	199 ± 32.8
1-[(5-(Pyridin-3-yl)-1,3,4-oxadiazol-2-yl)thioacetyl]-3-(2-thienyl)-5-(4-chlorophenyl)-2-pyrazoline [Compound 9]	108 ± 30.1
1-[(1-(2-(Dimethylamino)ethyl)-1H-tetrazol-5-yl)thioacetyl]-3-(2-thienyl)-5-(4-chlorophenyl)-2-pyrazoline [Compound 5]	216 ± 29.7
N.N.[Cl][Pt][Cl] [Cisplatin, reference compound]	22.5 ± 2
1-[(Pyrimidin-2-yl)thioacetyl]-3-(2-thienyl)-5-(4-chlorophenyl)-2-pyrazoline [Compound 7]	236 ± 36.4

System: U87 human glioblastoma cell line
Assay: MTT assay for cytotoxicity, U87 cells
Assay type: cell-based
Conditions: not given
Description: as §1

Molecule	cytotoxicity on U87 cell line (in words)
1-[(5-(4-Methoxyphenyl)-1,3,4-oxadiazol-2-yl)thioacetyl]-3-(2-thienyl)-5-(4-chlorophenyl)-2-pyrazoline [Compound 12]	no significant cytotoxicity

Same assay, conditions: MTT, 24 h incubation

Molecule	IC50 [µM]
1-[(1-Phenyl-1H-tetrazol-5-yl)thioacetyl]-3-(2-thienyl)-5-(4-chlorophenyl)-2-pyrazoline [Compound 3]	> 500
1-[(5-(4-Chlorophenyl)-1,3,4-oxadiazol-2-yl)thioacetyl]-3-(2-thienyl)-5-(4-chlorophenyl)-2-pyrazoline [Compound 10]	251 ± 30.4
1-[(5-Phenyl-1,3,4-oxadiazol-2-yl)thioacetyl]-3-(2-thienyl)-5-(4-chlorophenyl)-2-pyrazoline [Compound 8]	> 500
1-[(1-(4-Hydroxyphenyl)-1H-tetrazol-5-yl)thioacetyl]-3-(2-thienyl)-5-(4-chlorophenyl)-2-pyrazoline [Compound 4]	> 500
1-[(1-Methyl-1H-tetrazol-5-yl)thioacetyl]-3-(2-thienyl)-5-(4-chlorophenyl)-2-pyrazoline [Compound 2]	> 500
1-[(5-Methyl-1,3,4-thiadiazol-2-yl)thioacetyl]-3-(2-thienyl)-5-(4-chlorophenyl)-2-pyrazoline [Compound 6]	> 500
1-[(5-(Pyridin-3-yl)-1,3,4-oxadiazol-2-yl)thioacetyl]-3-(2-thienyl)-5-(4-chlorophenyl)-2-pyrazoline [Compound 9]	> 500
1-[(1-(2-(Dimethylamino)ethyl)-1H-tetrazol-5-yl)thioacetyl]-3-(2-thienyl)-5-(4-chlorophenyl)-2-pyrazoline [Compound 5]	> 500
N.N.[Cl][Pt][Cl] [Cisplatin, reference compound]	14.8 ± 1.4
1-[(Pyrimidin-2-yl)thioacetyl]-3-(2-thienyl)-5-(4-chlorophenyl)-2-pyrazoline [Compound 7]	> 500

System: U251 human glioblastoma cell line
Assay: MTT assay for cytotoxicity, U251 cells
Assay type: cell-based
Conditions: 24 h incubation
Description: as §1

Molecule	IC50 [µM]
1-[(1-Phenyl-1H-tetrazol-5-yl)thioacetyl]-3-(2-thienyl)-5-(4-chlorophenyl)-2-pyrazoline [Compound 3]	> 500
1-[(5-Phenyl-1,3,4-oxadiazol-2-yl)thioacetyl]-3-(2-thienyl)-5-(4-chlorophenyl)-2-pyrazoline [Compound 8]	393 ± 60.4
1-[(1-(4-Hydroxyphenyl)-1H-tetrazol-5-yl)thioacetyl]-3-(2-thienyl)-5-(4-chlorophenyl)-2-pyrazoline [Compound 4]	> 500
1-[(1-Methyl-1H-tetrazol-5-yl)thioacetyl]-3-(2-thienyl)-5-(4-chlorophenyl)-2-pyrazoline [Compound 2]	> 500
1-[(5-Methyl-1,3,4-thiadiazol-2-yl)thioacetyl]-3-(2-thienyl)-5-(4-chlorophenyl)-2-pyrazoline [Compound 6]	> 500
1-[(5-(Pyridin-3-yl)-1,3,4-oxadiazol-2-yl)thioacetyl]-3-(2-thienyl)-5-(4-chlorophenyl)-2-pyrazoline [Compound 9]	> 500
1-[(1-(2-(Dimethylamino)ethyl)-1H-tetrazol-5-yl)thioacetyl]-3-(2-thienyl)-5-(4-chlorophenyl)-2-pyrazoline [Compound 5]	> 500
N.N.[Cl][Pt][Cl] [Cisplatin, reference compound]	4.9 ± 1
1-[(Pyrimidin-2-yl)thioacetyl]-3-(2-thienyl)-5-(4-chlorophenyl)-2-pyrazoline [Compound 7]	> 500

System: peripheral blood mononuclear cells (PBMC)
Assay: MTT cell viability, PBMC (tumor selectivity)
Assay type: cell-based, human
Conditions: Figure 3b, read-out: IC50 against PBMC
Description: (§2) U251 and U87 human glioblastoma cells were incubated in Dulbecco’s-modified Eagle’s medium (DMEM) (Wako Pure Chemical Industries, Osaka, Japan) supplemented with 10% fetal bovine serum (FBS) (Equitech-Bio, Kerrville, TX, USA). AsPC-1 human pancreas adenocarcinoma and Jurkat human leukemic T-cells were incubated RPMI 1640 (Wako Pure Chemical Industries), supplemented with 10% FBS. Peripheral blood mononuclear cells (PBMC) (Precision Bioservices, Frederick, MD, USA) were incubated RPMI 1640 and supplemented with 10% human serum AB (HS) (Gemini, Woodland, CA, USA). […] Growing cells were plated at 1 × 10^5 cells/mL into 24-well microtiter tissue culture plates (Iwaki brand Asahi Glass Co., Chiba, Japan) and incubated for 24 h before the addition of the drugs (the optimal cell number for cytotoxicity assays was determined in preliminary experiments). […] The level of cellular reduction of 3-(4,5-dimethylthiazol-2-yl)-2,5-diphenyltetrazolium bromide (MTT) (Dojindo Molecular Technologies, Kumamoto, Japan) was quantified as previously described in the literature with small modifications. […] After the solubilized crystals were diluted (1:10) with DMSO, 100 µL was transferred to wells of 96-well microtiter plates (Iwaki brand Asahi Glass Co.) and the absorbance at 550 nm was measured using a microplate spectrophotometer Infinitive M1000 (Tecan, Groding, Austria). […]

Molecule	IC50 [µM]
1-[(5-(4-Methylphenyl)-1,3,4-oxadiazol-2-yl)thioacetyl]-3-(2-thienyl)-5-(4-chlorophenyl)-2-pyrazoline [Compound 11]	~1000

System: Jurkat human leukemic T-cells
Assay: MTT cell viability, Jurkat cells (tumor selectivity)
Assay type: cell-based
Conditions: MTT, Figure 3b; read-out: IC50 against Jurkat human leukemic T-cells
Description: as §2

IC50 [µM]	Molecule
90	1-[(5-(4-Methylphenyl)-1,3,4-oxadiazol-2-yl)thioacetyl]-3-(2-thienyl)-5-(4-chlorophenyl)-2-pyrazoline [Compound 11]

Same assay, conditions: ratio of IC50 PBMC to IC50 Jurkat

Molecule	tumor selectivity in blood cells (PBMC vs Jurkat)
1-[(5-(4-Methylphenyl)-1,3,4-oxadiazol-2-yl)thioacetyl]-3-(2-thienyl)-5-(4-chlorophenyl)-2-pyrazoline [Compound 11]	more than 10 times

System: U251 cells
Assay: Detection of apoptotic and necrotic cells (annexin V/ethidium homodimer III staining)
Assay type: cell-based, human
Conditions: IC50 (11.9 µM, high concentration), 3 h
Excerpt: U251 cells were stained and observed by fluorescence microscope (Figure 4). If the cells are colored green with annexin V, and not stained red with ethidium homodimer III, the cells are judged to be apoptotic. […] The apoptotic and necrotic effects of compound 11 were compared with cisplatin. […] Then, apoptotic/necrotic/healthy cells detection kit protocol was applied according to the manufacturer’s instruction manual (PromoKine, Heidelberg, Germany). After the cells were washed twice with 1 × binding buffer, a staining solution containing 50 µL of 1 × binding buffer, 2 µL of FTIC-Annexin V solution, 2 µL of ethidium homodimer III solution and 2 µL of Hoechst 33342 solution was added and the cells were incubated for 15 min at RT, protected from light. Cells were washed with 1 × binding buffer and analyzed by all-in-one fluorescence microscope Biorevo Fluorescence BZ-9000 (Keyence, Osaka, Japan).

Molecule	apoptotic/necrotic effect
1-[(5-(4-Methylphenyl)-1,3,4-oxadiazol-2-yl)thioacetyl]-3-(2-thienyl)-5-(4-chlorophenyl)-2-pyrazoline [Compound 11]	mainly induced necrosis

Same assay, conditions: IC50 concentration, 24 h

Molecule	apoptotic/necrotic effect
1-[(5-(4-Methylphenyl)-1,3,4-oxadiazol-2-yl)thioacetyl]-3-(2-thienyl)-5-(4-chlorophenyl)-2-pyrazoline [Compound 11]	late stage apoptotic or necrotic effect
N.N.[Cl][Pt][Cl] [Cisplatin, reference compound]	only apoptotic effects

Same assay, conditions: low concentration (1.5 µM), 3 h

Molecule	apoptotic/necrotic effect
1-[(5-(4-Methylphenyl)-1,3,4-oxadiazol-2-yl)thioacetyl]-3-(2-thienyl)-5-(4-chlorophenyl)-2-pyrazoline [Compound 11]	exhibited apoptotic phenotype; also recorded: induced apoptosis; also recorded: showed apoptotic activity

System: supercoiled pUC19 DNA
Assay: DNA cleavage assay (agarose gel electrophoresis)
Assay type: biochemical
Conditions: IC50 concentrations, iron (II) complex system, 37 °C, 1.5 h
Description: The DNA cleavage activities of compound 11 and cisplatin at the IC50 concentrations in water and Tris/boric acid buffer in the presence and absent of the iron complex, H2O2 and ascorbic acid as an activator were studied using supercoiled pUC19 DNA (Figure 5). The reaction mixture was incubated at 37 °C for 1.5 h and then agarose gel electrophoresis was performed at 100 V for 40 min. DNA was visualized by photographing the fluorescence of intercalated ethidium bromide under a UV illuminator. […] Thus, it is considered that DNA-cleavage was caused by oxygen activation.
The DNA cleavage activities of the compounds were studied using supercoiled pUC19 DNA and analyzed by agarose (Takara, Kyoto, Japan) gel electrophoresis Mupid-2x (Mupid, Tokyo, Japan). pUC19 DNA (2 µg) was treated with compounds in water and Tris/boric acid (Nacalai Tesque, Kyoto, Japan) buffer (10 mM, pH 8.5) in the presence and absence of iron (II) sulfate heptahydrate (FeSO4·7H2O; 30 µM) (Wako Pure Chemical Industries), hydrogen peroxide (H2O2; 30 µM) (Tokyo Chemical Industry Co., Tokyo, Japan) and ascorbic acid (30 µM) (Tokyo Chemical Industry Co.) as an activator. […] DNA was visualized by photographing the fluorescence of intercalated ethidium bromide under a UV illuminator (Nippon Genetics Co., Tokyo, Japan).

Molecule	DNA-cleaving efficiency compared with cisplatin
1-[(5-(4-Methylphenyl)-1,3,4-oxadiazol-2-yl)thioacetyl]-3-(2-thienyl)-5-(4-chlorophenyl)-2-pyrazoline [Compound 11]	more significant than cisplatin; also recorded: much greater than cisplatin

Same assay, conditions: pUC19 DNA, 30 µM each activator, 37 °C, 1.5 h

Molecule	DNA cleavage efficiency with vs without FeSO4, H2O2 and ascorbic acid
1-[(5-(4-Methylphenyl)-1,3,4-oxadiazol-2-yl)thioacetyl]-3-(2-thienyl)-5-(4-chlorophenyl)-2-pyrazoline [Compound 11]	clearly enhanced

System: AsPC-1, U87 and U251 cell lines
Assay: MTT assay, overall activity on the three cell lines (in words)
Assay type: cell-based, human
Conditions: 10–500 µM, all three cell lines
Description: as §2

Molecule	cytotoxic activity (in words)
1-[(5-(4-Methylphenyl)-1,3,4-oxadiazol-2-yl)thioacetyl]-3-(2-thienyl)-5-(4-chlorophenyl)-2-pyrazoline [Compound 11]	good activity
